Literature values in patent US20140080712A1, “COMPOSITIONS AND METHODS FOR DOUBLE ENCAPSULATION OF A VOLATILE COMPOUND” (AgroFresh Inc., priority 2012, published 2014).

Tested on: ethylene
Conditions: freshness management

SMILES: CC1=CC1 [Sample 1-MCP, 1-methylcyclopropene]
- concentration effective in blocking ethylene: ~100 ppb
